From patent US20240417405A1, “Substituted Spiro Derivatives” (Janssen Pharmaceutica NV, priority 2021, published 2024) come the findings set out here.

Like-named read-outs stand apart in the source and are kept apart here. Bounds are passed on as bounds.

The test system of one experiment is MOLM14 cells. Kind of experiment: Proliferation assay, spheroid-like growth, MOLM14 (MLL-AF9 rearranged). The class given is cell-based, human. The note with it: 8 days, confluence as measure of spheroid size, read-out: spheroid assay_OneTime MOLM14 IC50. As for the experimental part:
The anti-proliferative effect of menin/MLL protein/protein interaction inhibitor test compounds was assessed in human leukemia cell lines. The cell line MOLM14 harbors a MLL translocation and expresses the MLL fusion proteins MLL-AF9, respectively, as well as the wildtype protein from the second allele. […] KO-52 was used as a control cell line containing two MLL (KMT2A) wildtype alleles in order to exclude compounds that display general cytotoxic effects.
MOLM14 cells were cultured in RPMI-1640 (Sigma Aldrich) supplemented with 10% heat-inactivated fetal bovine serum (HyClone), 2 mM L-glutamine (Sigma Aldrich) and 50 μg/ml gentamycin (Gibco). KO-52 cell lines were propagated in alpha-MEM (Sigma Aldrich) supplemented with 20% heat-inactivated fetal bovine serum (HyClone), 2 mM L-glutamine (Sigma Aldrich) and 50 μg/ml gentamycin (Gibco).
In order to assess the anti-proliferative effects, 200 MOLM14 cells, or 300 KO-52 cells were seeded in 200 μl media per well in 96-well round bottom, ultra-low attachment plates (Costar, catalogue number 7007). Cell seeding numbers were chosen based on growth curves to ensure linear growth throughout the experiment. Test compounds were added at different concentrations and the DMSO content was normalized to 0.3%. Cells were incubated for 8 days at 37° C. and 5% CO2. Spheroid like growth was measured in real-time by live-cell imaging (IncuCyteZOOM, Essenbio, 4× objective) acquiring images at day 8. Confluence (%) as a measure of spheroid size was determined using an integrated analysis tool.
In order to determine the effect of the test compounds over time, the confluence in each well as a measure of spheroid size, was calculated. Confluence of the highest dose of a reference compound was used as baseline for the LC (Low control) and the confluence of DMSO treated cells was used as 0% cytotoxicity (High Control, HC).
Absolute IC50 values were calculated as percent change in confluence as follows:
LC=Low Control: cells treated with e.g. 1 μM of the cytotoxic agent staurosporin, or e.g. cells treated with a high concentration of an alternative reference compound
GraphPad Prism (version 7.00) was used to calculate the IC50. Dose-response equation was used for the plot of % Effect vs Log 10 compound concentration with a variable slope and fixing the maximum to 100% and the minimum to 0%.

Experiment [1] has as its target T1, menin/MLL (terbium chelate-labeled menin, FITC-MBM1 peptide) (Homo sapiens, UniProt O00255, T541A).
T1 construct: Menin (a.a 1-610-6xhis tag)
T1 sequence (O00255 with tags, fused parts or gaps T541A): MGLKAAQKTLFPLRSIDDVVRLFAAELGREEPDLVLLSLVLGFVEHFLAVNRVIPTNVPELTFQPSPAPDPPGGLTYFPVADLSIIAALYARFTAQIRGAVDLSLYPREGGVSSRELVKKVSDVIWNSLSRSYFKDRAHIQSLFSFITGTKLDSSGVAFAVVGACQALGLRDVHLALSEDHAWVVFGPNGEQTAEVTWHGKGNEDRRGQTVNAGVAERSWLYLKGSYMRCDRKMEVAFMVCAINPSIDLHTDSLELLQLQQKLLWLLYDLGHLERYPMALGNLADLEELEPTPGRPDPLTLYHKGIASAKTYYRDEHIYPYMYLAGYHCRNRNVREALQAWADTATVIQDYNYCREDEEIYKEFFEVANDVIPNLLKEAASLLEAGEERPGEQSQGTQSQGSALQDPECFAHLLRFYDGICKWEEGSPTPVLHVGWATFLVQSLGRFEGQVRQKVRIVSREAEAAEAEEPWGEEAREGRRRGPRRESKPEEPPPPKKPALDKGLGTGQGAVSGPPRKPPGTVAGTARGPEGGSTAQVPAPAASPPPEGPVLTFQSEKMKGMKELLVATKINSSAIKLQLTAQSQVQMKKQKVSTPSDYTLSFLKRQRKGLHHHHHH
Kind of experiment: Menin/MLL homogenous time-resolved fluorescence (HTRF) assay. The class given is binding. To be noted: 30 min incubation. As for the experimental part:
1) Menin/MLL Homogenous Time-Resolved Fluorescence (HTRF) Assay
To an untreated, white 384-well microtiter plate was added 40 nL 200× test compound in DMSO and 4 μL 2× terbium chelate-labeled menin (vide infra for preparation) in assay buffer (40 mM Tris.HCl, pH 7.5, 50 mM NaCl, 1 mM DTT (dithiothreitol) and 0.05% Pluronic F-127). After incubation of test compound and terbium chelate-labeled menin for 30 min at ambient temperature, 4 μL 2× FITC-MBM1 peptide (FITC-β-alanine-SARWRFPARPGT-NH2 (SEQ ID NO: 3)) (“FITC” means fluorescein isothiocyanate) in assay buffer was added, the microtiter plate centrifuged at 1000 rpm for 1 min and the assay mixtures incubated for 15 min at ambient temperature. The relative amount of menin FITC-MBM1 complex present in an assay mixture is determined by measuring the homogenous time-resolved fluorescence (HTRF) of the terbium/FITC donor/acceptor fluorophore pair using an EnVision microplate reader (ex. 337 nm/terbium em. 490 nm/FITC em. 520 nm) at ambient temperature. The degree of fluorescence resonance energy transfer (the HTRF value) is expressed as the ratio of the fluorescence emission intensities of the FITC and terbium fluorophores (F^em 520 nm/F^em 490 nm). The final concentrations of reagents in the binding assay are 200 pM terbium chelate-labeled menin, 75 nM FITC-MBM1 peptide and 0.5% DMSO in assay buffer. Dose-response titrations of test compounds are conducted using an 11 point, four-fold serial dilution scheme, starting typically at 10 μM.
Compound potencies were determined by first calculating % inhibition at each compound concentration according to equation 1:
% inhibition=((HC−LC)−(HTRF^compound−LC))/(HC−LC))*100 (Eqn 1)
Where LC and HC are the HTRF values of the assay in the presence or absence of a saturating concentration of a compound that competes with FITC-MBM1 for binding to menin, and HTRF^compound is the measured HTRF value in the presence of the test compound. HC and LC HTRF values represent an average of at least 10 replicates per plate.
% inhibition=Bottom+(Top−Bottom)/(1+10^((logIC50−log[cmpd])*h)) (Eqn 2)
Where Bottom and Top are the lower and upper asymptotes of the dose-response curve, respectively, IC50 is the concentration of compound that yields 50% inhibition of signal and h is the Hill coefficient. IC50 values below 0.1 nM in the HTRF assay were reported as 0.1 nM in the Table below (detection limit).
Preparation of Terbium cryptate labeling of Menin: Menin (a.a 1-610-6xhis tag (“6xhis tag” disclosed as SEQ ID NO: 2), 2.3 mg/mL in 20 mM Hepes (2-[4-(2-Hydroxyethyl)-1-piperazinyl]ethane sulfonic acid), 80 mM NaCl, 5 mM DTT (Dithiothreitol), pH 7.5) was labeled with terbium cryptate as follows. 200 μg of Menin was buffer exchanged into 1× Hepes buffer. 6.67 μM Menin was incubated with 8-fold molar excess NHS (N-hydroxysuccinimide)-terbium cryptate for 40 minutes at room temperature. Half of the labeled protein was purified away from free label by running the reaction over a NAP5 column with elution buffer (0.1 M Hepes, pH 7+0.1% BSA (bovine serum albumin)). The other half was eluted with 0.1 M phosphate buffered saline (PBS), pH7. 400 μl of eluent was collected for each, aliquoted and frozen at −80° C. The final concentration of terbium-labeled Menin protein was 115 μg/mL in Hepes buffer and 85 μg/mL in PBS buffer, respectively.
(In TR-FRET formats the signal depends on donor and acceptor labels being close together.)

What is called IC50 is the concentration that inhibits the measured activity by half. With `CO[C@H]1CCN([C@H]2C[C@H](C(C(C)C)N3CC4(CCN(c5ncnnc5Oc5ccc(F)cc5-c5nnccc5C5CC5)C4)C3)C2)C1` (single isomer, unassigned) [Compound 332], the IC50 was found to be 37 nM in the experiment on MOLM14 cells (Homo sapiens, MOLM-14, 192 h) and 0.7 nM in experiment [1].
The matching figures for `Cc1ncc(-c2cc(F)ccc2Oc2nncnc2N2CCC3(C2)CN([C@@H](C(C)C)[C@H]2C[C@@H](N4CCC5(COC5)C4)C2)C3)c(C2CC2)n1` [Compound 382]: 7 nM and 0.08 nM.
As to `CC(=O)N1CC2CN([C@H]3C[C@@H]([C@H](C(C)C)N4CC5(CCN(c6ncnnc6Oc6ccc(F)cc6-c6cnc(C)nc6C6CC6)C5)C4)C3)CC2C1` (stereo partly drawn) [Compound 375], the IC50 in the experiment with MOLM14 cells turned out to be 4 nM; in experiment [1] it was 0.055 nM.
Take `Cc1ncc(-c2cc(F)ccc2Oc2nncnc2N2CCC3(C2)CN([C@@H](C(C)C)[C@H]2C[C@@H](N4CC[C@@H](NC(=O)C5CC5)C4)C2)C3)c(C2CC2)n1` [Compound 386]: the IC50 with MOLM14 cells (Homo sapiens, MOLM-14, 192 h) is < 1.8 nM; in experiment [1], 0.059 nM.
Consider `CC(C)C([C@H]1C[C@@H](Nc2cccc(CN(C)C)n2)C1)N1CC2(CCN(c3ncnnc3Oc3ccc(F)cc3-c3cncnc3C3CC3)C2)C1` (single isomer, unassigned) [Compound 425], for which the IC50 in the experiment on MOLM14 cells (Homo sapiens, MOLM-14, 192 h) was determined as 6 nM; in experiment [1], 0.03 nM.
The corresponding values for `CC(C)[C@H]([C@H]1C[C@@H](N2CC3(CCOC3)C2)C1)N1CC2(CCN(c3ncnnc3Oc3ccc(F)cc3-c3cncnc3C3CC3)C2)C1` (single isomer, unassigned) [Compound 247] are 9 nM and 0.1 nM.
The matching figures for `CC(C)[C@H]([C@H]1C[C@@H](Nc2cnnc(-c3ccn[nH]3)c2)C1)N1CC2(CCN(c3ncnnc3Oc3ccc(F)cc3-c3cncnc3C3CC3)C2)C1` (single isomer, unassigned) [Compound 424]: 4 nM and 0.17 nM.
Take `CC(C)[C@H]([C@H]1C[C@@H](N2CCC3(CN(C)C(=O)O3)C2)C1)N1CC2(CCN(c3ncnnc3Oc3ccc(F)cc3-c3cncnc3C3CC3)C2)C1` (single isomer, unassigned) [Compound 329]: the IC50 in the experiment on MOLM14 cells (Homo sapiens, MOLM-14, 192 h) was determined as 32 nM; in experiment [1], 0.3 nM.
As to `CC(=O)Nc1nccc(N[C@H]2C[C@@H]([C@@H](C(C)C)N3CC4(CCN(c5ncnnc5Oc5ccc(F)cc5-c5cncnc5C5CC5)C4)C3)C2)c1F` (single isomer, unassigned) [Compound 429], the IC50 came to 3.3 nM in the experiment on MOLM14 cells (Homo sapiens, MOLM-14, 192 h) and 0.17 nM in experiment [1].
With `CC(C)[C@H]([C@H]1C[C@H](N2CCNC(=O)C2)C1)N1CC2(CCN(c3ncnnc3Oc3ccc(F)cc3-c3cncnc3C3CC3)C2)C1` (single isomer, unassigned) [Compound 241], the 50% inhibitory concentration (IC50) amounted to 510 nM in the experiment with MOLM14 cells (Homo sapiens, MOLM-14, 192 h) and 2.1 nM in experiment [1].
Consider `CC(=O)N[C@@H]1CCN([C@H]2C[C@@H]([C@H](C(C)C)N3CC4(CCN(c5ncnnc5Oc5ccc(F)cc5-c5cnc(C)nc5C5CC5)C4)C3)C2)C1` [Compound 389], for which the IC50 in the experiment on MOLM14 cells (Homo sapiens, MOLM-14, 192 h) came out at 2 nM; in experiment [1] it was 0.046 nM.
The matching figures for `CC(=O)N1CC2(CCN([C@H]3C[C@@H]([C@H](C(C)C)N4CC5(CCN(c6ncnnc6Oc6ccc(F)cc6-c6cnc(C)nc6C6CC6)C5)C4)C3)C2)C1` [Compound 381]: 8.1 nM and 0.14 nM.
The corresponding values for `CNC(=O)c1oc(N[C@H]2C[C@@H](C(C(C)C)N3CC4(CCN(c5ncnnc5Oc5ccc(F)cc5-c5cncnc5C5CC5)C4)C3)C2)nc1C` (single isomer, unassigned) [Compound 460] are 11 nM and 0.07 nM.
The matching figures for `CC(C)[C@H]([C@H]1C[C@@H](Nc2cnc3nn[nH]c3c2)C1)N1CC2(CCN(c3ncnnc3Oc3ccc(F)cc3-c3cncnc3C3CC3)C2)C1` (single isomer, unassigned) [Compound 431]: 79 nM and 0.54 nM.
Consider `CNC(=O)c1nnc(N[C@H]2C[C@@H]([C@@H](C(C)C)N3CC4(CCN(c5ncnnc5Oc5ccc(F)cc5-c5cncnc5C5CC5)C4)C3)C2)o1` (single isomer, unassigned) [Compound 439], for which the IC50 in the experiment on MOLM14 cells (Homo sapiens, MOLM-14, 192 h) was determined as 25 nM; in experiment [1], 0.39 nM.
The matching figures for `CC(C)C(C1CC(Nc2ncc3cn[nH]c3n2)C1)N1CC2(CCN(c3ncnnc3Oc3ccc(F)cc3-c3cncnc3C3CC3)C2)C1` (single isomer, unassigned) [Compound 411]: 10 nM and 0.15 nM.
Take `CC(C)[C@H]([C@H]1C[C@@H](Nc2ccnc(NS(C)(=O)=O)n2)C1)N1CC2(CCN(c3ncnnc3Oc3ccc(F)cc3-c3cncnc3C3CC3)C2)C1` (single isomer, unassigned) [Compound 408]: the IC50 with MOLM14 cells (Homo sapiens, MOLM-14, 192 h) stood at 220 nM; in experiment [1], 0.14 nM.
The matching figures for `Cc1ncc(-c2cc(F)ccc2Oc2nncnc2N2CCC3(C2)CN([C@@H](C(C)C)[C@H]2C[C@@H](N4CC5(CN(C(=O)C6(F)CC6)C5)C4)C2)C3)c(C2CC2)n1` [Compound 391]: < 1.8 nM and 0.057 nM.
